Source: patent US6686445B1, “Synthetic antineoplastic agents derived from dolastatin 15 and methods of making same” (Arizona Board of Regents, acting for and on behalf of …, priority 1997, dated 2004)
Where two headings read alike, the source gives them in different places. Where a SMILES comes first, the peptide text is derived from it. [ ]: non-standard residue; d: D form. The star is where a group is joined. X1 = COC1=CC(=O)N(C(=O)[C@@H](O*)C(C)C)[C@H]1Cc1ccccc1; NMe2Val = CC(C)[C@@H](C(=O)*)N(C)C; NH(thiazol-2-yl) = c1csc(N*)n1; NMeV = CN[C@H](C(=O)O)C(C)C; Hiv = CC(C)[C@H](O)C(=O)O

Columns and labels:
[1] = tested on: murine P388 lymphocytic leukemia cells; assay: growth inhibition of murine P388 lymphocytic leukemia cells; type: cell-based; conditions: dosage inhibiting tumor cell growth by 50%
Method: (§1) All compounds synthesized were first evaluated for in vitro antitumor activity against murine P388 lymphocytic leukemia cells and against murine L1210 leukemia cells and human CA46 Burkitt lymphoma cells using techniques described by Hamel & Lin (see: HAMEL, E., and LIN, C. M., […], Interaction of combretastatin, a new plant-derived antimitotic agent, with tubulin, Biochemical Pharmacology, 32, 3864). The compounds were also evaluated in the NCI's human tumor 60-cell-line in intro primary screen as described by Monks et al. (see: MONKS, A., SCUDIERO, et al., 1991, New colorimetric cytotoxicity assay for anticancer drug screening, Journal of the National Cancer Institute, 83, 757). Data analyses were performed using methods described by Boyd and Paull (see: BOYD, M. R., et al., 1995, Some practical considerations and applications of the National Cancer Institute in vitro anticancer drug discovery screen, Drug Development Research, 34, 91). A tubulin polymerization inhibition assay was performed according to a modified version of the procedure used previously and described by Muzaffar et al. (see: MUZAFFAR, A., et al., 1990, Antitubulin effects of derivatives of 3-demethylthiocolchicine, methylthio esters of natural colchicinoids, and thioketones derived from thiocolchicine, Comparison with colchicine, Journal of Medicinal Chemistry, 33, 567) to evaluate the effects of dolastatin 15 on cellular microtubule assembly. The new assay for these compounds employed a drug-tubulin preincubation (15 min.) with 10 μM tubulin in 0.8 M glutamate at 30° C., followed by addition of GTP and incubation (20 min.) at 30° C., with tubulin polymerization monitored turbidimetrically in GILFORD recording spectrophotometers.

[2] = tested on: NCI 60-cell-line in vitro human tumor panel; conditions: read-out: Mean Panel GI50; mean ± S.D. of triplicate tests (* duplicate)
Method: as §1

[3] = tested on: human CA46 Burkitt lymphoma cells; conditions: read-out: Human CA46 Burkitt Lymphoma IC50; cells counted after 20 hours
Method: as §1

[4] = tested on: murine L1210 leukemia cells; conditions: read-out: Mouse Leukemia L1210 IC50; cells counted after 24 hours of growth
Method: as §1

[5] = tested on: human CA46 Burkitt lymphoma cells; assay: mitotic arrest in drug-treated CA46 Burkitt cells; type: cell-based; conditions: 80 nM drug for 20 hours, control cells 3% mitotic
Method: To further verify the assumption that this entire series of compounds is acting intracellularly by interfering with tubulin function, the drug-treated Burkitt cells for mitotic arrest were analyzed.

tubulin [6] = assay: tubulin polymerization inhibition, 0.8 M glutamate at 30° C.; type: biochemical; conditions: read-out: tubulin assembly IC50
Method: as §1
Since these high molecular weight polymers, like microtubules, scatter light, they make it impossible to quantify drug effects by turbidimetry or centrifugation. […] (no MgCl2 added to reactions).

Erwinia carotovora = assay: antimicrobial disk susceptibility test; type: cell-based; conditions: twofold dilutions
Method: Antimicrobial disk susceptibility tests were performed according to the method established by the National Committee for Clinical Laboratory Standards (NCCLS, 1997). MUELLER-HINTON agar was used for susceptibility testing of Staphylococcus aureus, Enterococcus faecalis, Micrococcus luteus, Escherichia coli, Enterobacter cloacae, Bacillus subtilis, Pseudomonas aeruginosa, and Erwinia carotovora, Gonococcal Typing agar for Neisseria gonorrhoeae, and YM agar for Candida albicans and Cryptococcus neoformans. Immediately prior to susceptibility assays, compounds were reconstituted in sterile DMSO and twofold dilutions applied to sterile 6-mm disks. Zones of inhibition were read at 16 hours for bacterial cultures (except for M. luteus) and 42 hours for fungal cultures and M. luteus. MIC determinations were performed in duplicate.

tubulin [7] = conditions: read-out: tubulin polymerization IC50 (new experiments); 1 M monosodium glutamate-1 mM MgCl2; maximum concentration used 40 μM
tubulin [8] = conditions: cited from earlier work

SMILES	Mouse Leukemia P388 ED50 [1]	GI50 [2]	IC50 [3]	IC50 [4]	% Mitotic Cells [5]	IC50 (tubulin [6])	Minimum inhibitory concentration, Erwinia carotovora (Erwinia carotovora)	IC50 (tubulin [7])	IC50 (tubulin [8]; read-out: tubulin polymerization IC50 (Bai et al. 1992), 10 μM tubulin, 1 M monosodium glutamate-1 mM MgCl2, 20 min at 37° C.)	interaction with purified tubulin weaker than that of dolastatin 10 (tubulin [8]; relative to dolastatin 10)
COC1=CC(=O)N(C(=O)[C@@H](OC(=O)[C@@H]2CCCN2C(=O)[C@@H]2CCCN2C(=O)[C@H](C(C)C)N(C)C(=O)[C@@H](NC(=O)[C@H](C(C)C)N(C)C)C(C)C)C(C)C)[C@H]1Cc1ccccc1 [Compound 1, dolastatin 15] (NMe2Val-V[NMeV]PP-X1)	2.4 ng/mL	1.12 ± 0.5 nM	2 nM	4 nM	31%	5200 nM	3.12-6.25 μg/disk	19000 ± 300 nM	23000 nM	about 20 fold
CC(C)[C@H](NC(=O)[C@H](C(C)C)N(C)C)C(=O)N(C)[C@H](C(=O)N1CCC[C@H]1C(=O)N1CCC[C@H]1C(=O)O[C@H](C(=O)Nc1nccs1)C(C)C)C(C)C [Compound 12p] (NMe2Val-V[NMeV]PP[Hiv]-{NH(thiazol-2-yl)})	0.26 ng/mL	1.2 nM	4 nM	2 nM	40%	8400 nM	50-100 μg/disk	–	–	–
